Measured values: ChEMBL document CHEMBL3861999, “Investigation of C-5 alkynyl (alkynyloxy or hydroxymethyl) and/or N-3 propynyl substituted pyrimidine nucleoside analogs as a new class of antimicrobial agents” (Bioorg Med Chem, 2016)

Key:
Type in all cases: functional
Conditions in all cases: variant bovis BCG, 144 h, read-out: GI
[1] = test system: Mycobacterium tuberculosis; experiment: Growth inhibition of Mycobacterium bovis BCG at 1 ug/ml after 6 days by microplate alamar blue assay
[2] = test system: Mycobacterium tuberculosis; experiment: Growth inhibition of Mycobacterium bovis BCG at 0.5 ug/ml after 6 days by microplate alamar blue assay
[3] = test system: Mycobacterium tuberculosis; experiment: Growth inhibition of Mycobacterium bovis BCG at 200 ug/ml after 6 days by microplate alamar blue assay

| SMILES | inhibition of growth at 200 µg/mL [3] | further results |
| --- | --- | --- |
| NNC(=O)c1ccncc1 [ISONIAZID] |  | inhibition of growth at 1 µg/mL [1]: 100% |
| CO[C@H]1/C=C/O[C@@]2(C)Oc3c(C)c(O)c4c(O)c(c(/C=N/N5CCN(C)CC5)c(O)c4c3C2=O)NC(=O)/C(C)=C\C=C\[C@H](C)[C@H](O)[C@@H](C)[C@@H](O)[C@@H](C)[C@H](OC(C)=O)[C@@H]1C [RIFAMPIN] |  | inhibition of growth at 0.5 µg/mL [2]: 100% |
| C#CCOc1cn([C@@H]2O[C@H](CO)[C@@H](O)[C@H]2F)c(=O)n(CC#C)c1=O | 34% |  |
| C#CCOc1cn([C@@H]2O[C@H](CO)[C@@H](O)[C@H]2F)c(=O)[nH]c1=O | 98% |  |
